Assay results as given in US5508419A, “Substituted triazoles as angiotensin II inhibitors” (Ortho Pharmaceutical Corporation, priority 1994, dated 1996).

Assays:
[1] = target: T1, angiotensin II receptor (angiotensin II-induced vasoconstriction in in vitro aortic rings) (Oryctolagus cuniculus, UniProt P34976); assay: Inhibition of Angiotensin II Dose-Response in Rabbit Thoracic Aorta; format: cell-based, rabbit (New Zealand white); conditions: for Kb / pA2: rabbit thoracic aorta, negative logarithm of antagonist concentration causing 2-fold shift to the right of agonist potency; for Kb: read-out: pA2 (converted); for inhibition at 10 µM: read-out: % Inhib. @ 10 uM
T1 construct: thoracic aorta gently dissected free from the aortic root to the level of the diaphragm; from tissue; host or cells: rabbit (New Zealand white) thoracic aorta rings
T1 sequence (P34976 1-359): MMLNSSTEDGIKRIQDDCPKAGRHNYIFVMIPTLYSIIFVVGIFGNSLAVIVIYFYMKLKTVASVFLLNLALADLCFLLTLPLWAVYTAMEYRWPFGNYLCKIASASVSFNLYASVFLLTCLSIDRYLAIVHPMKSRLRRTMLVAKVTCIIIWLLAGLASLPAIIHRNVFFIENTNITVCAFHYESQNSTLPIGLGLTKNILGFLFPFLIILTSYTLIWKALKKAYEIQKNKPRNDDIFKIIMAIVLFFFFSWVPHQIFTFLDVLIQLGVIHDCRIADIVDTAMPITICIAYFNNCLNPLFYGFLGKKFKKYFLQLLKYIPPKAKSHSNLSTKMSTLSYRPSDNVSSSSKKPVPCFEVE
Source text: Inhibition of Angiotensin II Dose-Response in Rabbit Thoracic Aorta
Purpose: To identify competitive receptor antagonists of an angiotensin II-activity, 1 activity i.e., angiotensin II-induced vasoconstriction in in vitro aortic rings.
Procedure: 1.8 to 2.3 kg New Zealand white rabbits are sacrificed with an intravenous sodium pentobarbital overdose and the thoracic aorta gently dissected free from the aortic root to the level of the diaphragm, into ice cold Krebs bicarbonate buffer. The aorta is gently freed of clots and adventitia and cleanly cut with a scalpel into 5 mm segments. Each dng is suspended from a Gould isotonic force transducer in a tissue bath containing 15 mL oxygenated Krebs bicarbonate buffer regulated at 37° C. Initial tension is adjusted to 4.0 g and equilibrated over three 20-min wash periods to achieve a baseline tension of 3.0 g. Graded angiotensin II doses are given cumulatively to achieve a maximal contraction. Three 20-min washes are pedormed to remove the initial angiotensin II effect. The test compound is then given at a screening concentration of 1.0×10^-5 M. After observing any effects of the test compound alone, the angiotensin II cumulative dose-response is then repeated in the presence of the test compound.
Analysis: Angiotensin II vasoconstdctor tension in grams is expressed as a percent of maximal contraction for the before and after test compound angiotensin II dose-responses. Angiotensin II ED50 and ED90 is determined from the angiotensin II dose-response curves generated before and after test compound.
Controls: Test compounds are dissolved in DMSO vehicle and DMSO vehicle alone is tested in two rings as a vehicle control in each screening experiment.
pA2 is the negative logarithm of the antagonist concentration that causes a 2-fold shift to the right (i.e. decrease) in the potency of the agonist or the negative logarithm of the antagonist concentration that cuts the potency of the agonist in half.

plasma renin activity = assay: Plasma renin activity (PRA, RIA) in salt-depleted rats; format: in vivo, rat (Sprague-Dawley); conditions: after DuP-753 treatment of salt-depleted rats, 0.7 before and about 7.4 after salt depletion
angiotensin II receptor = assay: Screening Potential Angiotensin II Receptor Antagonists in Salt-Depleted Normotensive Rats (blood pressure); format: in vivo, rat (Sprague-Dawley)
Experimental: Method; Male 350-450 g Sprague-Dawley rats are implanted with teflon microcannulae via the middle caudal artery under 20 mg/kg intravenous brevital anesthesia and permitted a 4-7 day surgical recovery period. Throughout recovery and testing animals are individually housed unrestrained in standard rat metabolism cages and receive continuous 0.5 ml/h intra-arterial 0.25N saline infusion through a spring-shielded swivelling tether connected to an infusion/blood pressure recording system to maintain arterial cannula patency. […] […] Three hours after the second furosemide dose, rats are given test compound uniformly suspended in 1% methylcellulose (n=3/dose level) or 1 mL 1% methylcellulose vehicle (n=3) orally by gavage and blood pressure is continuously recorded for 24 h using a Buxco computerized data recording system. Compound-induced changes in blood pressure are compared to concurrent vehicle control blood pressures in order to detect drug effect.
Interpretation: Prior to salt depletion, normotensive rats typically show a plasma renin activity (PRA, ng angiotensin I/mL plasma/h, RIA) of 0.7. After the salt-depletion protocol PRA values taken 3 h after the furosemide dose have risen to about 7.4.
Compounds that decrease blood pressure 10 or more mmHg (MAP) compared to concurrent control after oral dosing are considered active in this test. Maximum possible response is about -35 mmHg. […]

Kb [1] [nM] | inhibition at 10 µM [1] [%] | SMILES | also measured
– | 100 | CCCCCc1nc(SCc2ccc(-c3ccccc3C(=O)O)cc2)nn1Cc1ccc(-c2ccccc2C(=O)O)cc1 [Compound 6, 5-Pentyl-1,3-bis-[4-(2'-carboxyphenyl)benzyl]mercapto-1,2,4-triazole] | pA2 [1]: 8.39
11 | 100 | CCCCCCc1nc(SCc2ccc(-c3ccccc3C(=O)OC)cc2)nn1Cc1ccc(-c2ccccc2C(=O)OC)cc1 [Compound 8, 5-Hexyl-1,3-bis-[4-(2'-carbomethoxyphenyl)benzyl]mercapto-1,2,4-triazole] | –
– | 2 | CCCCCCCc1nc(SCc2ccc(-c3ccccc3C(=O)OC)cc2)nn1Cc1ccc(-c2ccccc2C(=O)OC)cc1 [Compound 9, 5-Heptyl-1,3-bis-[4-(2'-carbomethoxyphenyl)benzyl]mercapto-1,2,4-triazole] | –
10000 | – | CCCCCc1nc(SCc2ccc(-c3ccccc3C(=O)OC)cc2)nn1Cc1ccc(-c2ccccc2-c2nn[nH]n2)cc1 [Compound 16, 3-[4-(2'-Carbomethoxyphenyl)benzyl]mercapto-5-pentyl-1-[4-(2'-tetrazolophenyl)benzyl]-1,2,4-triazole hemihydrate] | –
– | 4 | CCCCCc1nc(SCc2ccc(-c3ccccc3C(=O)OC)cc2)n(Cc2ccc(-c3ccccc3C(=O)OC)cc2)n1 [Compound 21, 5-Pentyl-2,3-bis-[4-(2'-carbomethoxyphenyl)benzyl]mercapto-1,2,4-triazole] | –
– | 100 | CCCCCc1nc(SCc2ccc(-c3ccccc3C(=O)O)cc2)n(Cc2ccc(-c3ccccc3C(=O)O)cc2)n1 [Compound 23, 5-Pentyl-2,3-bis-[4-(2'-carboxyphenyl)benzyl]mercapto-1,2,4-triazole] | pA2 [1]: 7.19
– | 1 | CCCCCCCc1nc(SCc2ccc(-c3ccccc3C(=O)OC)cc2)n(Cc2ccc(-c3ccccc3C(=O)OC)cc2)n1 [Compound 25, 5-Heptyl-2,3-bis-[4-(2'-carbomethoxyphenyl)benzyl]mercapto-1,2,4-triazole] | –
– | 48 | CCCCCCCc1nc(SCc2ccc(-c3ccccc3C(=O)O)cc2)n(Cc2ccc(-c3ccccc3C(=O)O)cc2)n1 [Compound 26] | pA2 [1]: 5.88

Continued, molecule first:

SMILES | Kb [1] [nM] | inhibition at 10 µM [1] [%] | also measured
CCCCc1nc(SCc2ccc(-c3ccccc3C(=O)O)cc2)nn1Cc1ccc(-c2ccccc2C(=O)O)cc1 [Compound 2, Disodium 5-Butyl-1,3-bis-[4-(2'-carboxyphenyl)benzyl]mercapto-1,2,4-triazole] | 3.24 | 100 | –
CC(C)Cc1nc(SCc2ccc(-c3ccccc3C(=O)O)cc2)nn1Cc1ccc(-c2ccccc2C(=O)O)cc1 [Compound 4, Sodium 5-isobutyl-1,3-bis-[4-(2'-carboxyphenyl)benzyl]mercapto-1,2,4-triazole] | 32.4 | 100 | –
CCCCCCCc1nc(SCc2ccc(-c3ccccc3C(=O)O)cc2)nn1Cc1ccc(-c2ccccc2C(=O)O)cc1 [Compound 10, 5-Heptyl-1,3-bis-[4-(2'-carboxyphenyl)benzyl]mercapto-1,2,4-triazole] | 186 | 97 | –
CCCCCc1nc(SCc2ccc(-c3ccccc3C#N)cc2)nn1Cc1ccc(-c2ccccc2C(=O)O)cc1 [Compound 12] | – | 79 | –
CCCCCCCCc1nc(S(=O)(=O)Cc2ccc(-c3ccccc3C(=O)O)cc2)nn1Cc1ccc(-c2ccccc2C(=O)O)cc1 [Compound 38, 1-[(2'-Carboxyphenyl)benzyl]-3-[(2'-carboxyphenyl)benzylsulfonyl]-5-octyl-1,2,4-triazole hydrate] | 813 | 87 | –
CCCCCCCc1nc(S(=O)(=O)Cc2ccc(-c3ccccc3C(=O)O)cc2)nn1Cc1ccc(-c2ccccc2C(=O)O)cc1 [Compound 39, 1-[(2'-Carboxyphenyl)benzyl]-3-[(2'-carboxyphenyl)benzylsulfonyl]-5-heptyl-1,2,4-triazole hydrate] | 324 | 89 | –
CCCCCCc1nc(S(=O)(=O)Cc2ccc(-c3ccccc3C(=O)O)cc2)nn1Cc1ccc(-c2ccccc2C(=O)O)cc1 [Compound 40, 1-[(2'-Carboxyphenyl)benzyl]-3-[(2'-carboxyphenyl)benzylsulfonyl]-5-hexyl-1,2,4-triazole 0.5 hydrate] | 8.91 | 100 | –
CCCCc1nc(Cl)c(CO)n1Cc1ccc(-c2ccccc2-c2nn[nH]n2)cc1 [DuP-753] | – | – | plasma renin activity (PRA) (plasma renin activity): about 41.4 ng angiotensin I/mL plasma/h; blood pressure change (angiotensin II receptor; normotensive rats that have not been salt-depleted): does not change; blood pressure decrease (mean arterial pressure, MAP) (angiotensin II receptor; salt-depleted rats (furosemide, low sodium diet), typical response): about 35 mmHg
